Here are results for 21 compounds from PubChem BioAssay (NCI).

Test systems include KM20L2 colon; M19-MEL melanoma; DLD-1 colon; RXF-631 renal; DMS 273 small cell lung; LXFL 529 NSCLC; XF 498 CNS; MDA-N.
Test in all cases: NCI tumour cell line growth inhibition, 48 h

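Interpolation was linear, between the two tested concentrations surrounding the appropriate level; five concentrations were tested over 48 hours in 96-well plates. GI50 is the concentration that inhibits growth by half. TGI marks complete inhibition of growth.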 Some results are limits rather than exact numbers.

Take `CCC1(Cl)C(=O)NC(=O)N(C2CC(O)C(CO)O2)C1N=[N+]=[N-]` (stereo unspecified): the TGI in the assay with KM20L2 colon, in the assay with M19-MEL melanoma, with DLD-1 colon, with RXF-631 renal, with DMS 273 small cell lung and with LXFL 529 NSCLC was over 100 µM each time. In the assay on XF 498 CNS, this compound had a TGI of over 100 µM.

`BrC(Br)([P+](c1ccccc1)(c1ccccc1)c1ccccc1)[P+](c1ccccc1)(c1ccccc1)c1ccccc1`: the TGI in the assay with KM20L2 colon worked out at 86.2 µM; in the assay with M19-MEL melanoma it was 38.4 µM; with DLD-1 colon, 40.6 µM; in the assay with DMS 273 small cell lung, 32.6 µM; in the assay with LXFL 529 NSCLC, 34.5 µM.

`CCOC(=O)c1cc(C(=O)O)c(=O)n2c1[nH]c1ccccc12`: the TGI in the assay on KM20L2 colon, with M19-MEL melanoma, in the assay on DLD-1 colon, with RXF-631 renal, in the assay with DMS 273 small cell lung and in the assay with LXFL 529 NSCLC was over 100 µM in each case. Besides, the TGI in the assay with XF 498 CNS was over 100 µM.

For the compound `O=c1/c(=C/c2ccc3c(c2)OCO3)sc2nnc(Cc3ccccc3)n12`, the TGI in the assay on KM20L2 colon, with M19-MEL melanoma, in the assay on DLD-1 colon, in the assay on DMS 273 small cell lung and with LXFL 529 NSCLC was over 100 µM throughout.

Regarding `c1cc2ccc1C1NCCCN1CCN1CCCNC1c1ccc(cc1)C1NCCCN1CCN1CCCNC21` (stereo unspecified), the TGI in the assay on KM20L2 colon, with M19-MEL melanoma, with DLD-1 colon, in the assay with DMS 273 small cell lung, in the assay on LXFL 529 NSCLC and in the assay on XF 498 CNS was over 100 µM in each case.

Consider `CC12O[Te]34OC1(C)C(C)(O3)C2(C)O4`, for which the TGI was found to be 87.5 µM in the assay on KM20L2 colon; 25.5 µM with M19-MEL melanoma; 30.4 µM with DLD-1 colon; 37.7 µM with DMS 273 small cell lung; 26.7 µM in the assay with LXFL 529 NSCLC.

On to `C1=CC=C2NCCSCCNC3=CC=CC=CC3=NCCSCCN=C2C=C1`, for which the TGI in the assay with KM20L2 colon, in the assay with M19-MEL melanoma, in the assay on DLD-1 colon, in the assay with DMS 273 small cell lung and in the assay on LXFL 529 NSCLC was over 100 µM throughout.

For the compound `N=C(N)SCC(=O)O`, the TGI in the assay on MDA-N is over 100 µM.

`COC(=O)Cc1cc(=O)oc2c1C(=O)CCC2`: the TGI in the assay with KM20L2 colon, in the assay with M19-MEL melanoma, in the assay with DLD-1 colon, in the assay on DMS 273 small cell lung, in the assay with LXFL 529 NSCLC and with XF 498 CNS was over 100 µM in each case.

`O=C1OC(c2ccc(Cl)c3ccccc23)c2ccccc21` (stereo unspecified): the TGI in the assay on KM20L2 colon, in the assay with M19-MEL melanoma, with RXF-631 renal and with XF 498 CNS was over 100 µM each time.

On to `COc1cc2c3c(c1OC)/C(=N/OS(=O)(=O)c1ccc(C)cc1)CC3N(S(=O)(=O)c1ccc(C)cc1)CC2` (stereo unspecified), for which the TGI in the assay with KM20L2 colon, in the assay on M19-MEL melanoma, with DLD-1 colon, in the assay on RXF-631 renal, with DMS 273 small cell lung and in the assay on LXFL 529 NSCLC was over 100 µM each time. Moreover, in the assay on XF 498 CNS, the TGI is over 100 µM.

On to `C/C(N=NC(=S)N1CCCCCC1)=C1\C=CC=CN1O`, for which the TGI with KM20L2 colon is over 100 µM; with M19-MEL melanoma, 59.3 µM; with DLD-1 colon it was over 100 µM; with RXF-631 renal, over 100 µM; with MDA-N, over 100 µM; with DMS 273 small cell lung, 42.1 µM. Further, the TGI in the assay on LXFL 529 NSCLC and in the assay on XF 498 CNS was over 100 µM throughout.

`CN1C(=O)CC2(C)c3cc(C=O)ccc3N(C)C12` (stereo unspecified): the TGI with KM20L2 colon, with M19-MEL melanoma, in the assay on DLD-1 colon, with RXF-631 renal, with LXFL 529 NSCLC and in the assay on XF 498 CNS was over 100 µM throughout.

In the case of `CN1C=C(C(N)=O)C2CC(O)[C@@](NC(=O)CS(N)(=O)=O)(C(=O)O)C2C1` (stereo partly specified), the TGI was over 40.9 µM in the assay with KM20L2 colon; 15.8 µM in the assay on M19-MEL melanoma; 52.7 µM in the assay on DLD-1 colon; 9.7 µM with RXF-631 renal; 9.75 µM with DMS 273 small cell lung; 3.21 µM in the assay on XF 498 CNS.

On to `CCOc1ccccc1NC(=O)CCC(=O)NN`, for which the TGI in the assay with KM20L2 colon, with DLD-1 colon, in the assay with RXF-631 renal, with DMS 273 small cell lung, with LXFL 529 NSCLC and with XF 498 CNS was over 100 µM each time.

For `Cc1nnc(N=Nc2c(O)[nH]c3ccccc23)[nH]c1=O`, the TGI with MDA-N is over 100 µM.

Consider `C=C[C@@]1(C)CC(=O)[C@]2(O)[C@@]3(C)[C@@H](O)CCC(C)(C)[C@@H]3[C@H](O)[C@@H](OC(C)=O)[C@@]2(C)O1`, for which the TGI in the assay on MDA-N is over 100 µM.

As to `O=C(/C(=N/Nc1cn[nH]c(=O)c1Cl)c1ccccc1)c1ccccc1`, the TGI with MDA-N stood at 32.8 µM.

`NC(=O)c1ncn(C2OC(CO)C(O)C2O)c1NC(=S)NC(=O)c1ccccc1` (stereo unspecified): the TGI in the assay on KM20L2 colon, in the assay with M19-MEL melanoma, with DLD-1 colon, with DMS 273 small cell lung and in the assay with LXFL 529 NSCLC was over 100 µM each time.

As to `CC(=O)Oc1ccc2c(c1)O/C(=C\c1ccc(O)cc1)C2=O`, the TGI with MDA-N is over 100 µM.

Regarding `O=c1ncccn1C1OC(CO)C(O)C1F` (stereo unspecified), the TGI in the assay on KM20L2 colon, in the assay on M19-MEL melanoma, in the assay on DLD-1 colon, with RXF-631 renal, in the assay on DMS 273 small cell lung and in the assay with LXFL 529 NSCLC was over 100 µM throughout. For the same compound, in the assay on XF 498 CNS, the TGI was over 100 µM. The GI50 with DLD-1 colon was over 100 µM.
